From patent US6750228B1, “Aromatic sulfone hydroxamic acid metalloprotease inhibitor” (priority 1997, dated 2004)
Where two headings read alike, the source gives them in different places.

Experiments:
Test in all cases: biochemical
MMP-1 = biological target: T1, MMP-1 (Homo sapiens, UniProt P03956); conditions: read-out: MMP-1 IC50
T1 construct: made in house; host or cells: transfected HT-1080 cells (provided by Dr. Harold Welgus, Washington University)
T1 sequence (P03956 100-469): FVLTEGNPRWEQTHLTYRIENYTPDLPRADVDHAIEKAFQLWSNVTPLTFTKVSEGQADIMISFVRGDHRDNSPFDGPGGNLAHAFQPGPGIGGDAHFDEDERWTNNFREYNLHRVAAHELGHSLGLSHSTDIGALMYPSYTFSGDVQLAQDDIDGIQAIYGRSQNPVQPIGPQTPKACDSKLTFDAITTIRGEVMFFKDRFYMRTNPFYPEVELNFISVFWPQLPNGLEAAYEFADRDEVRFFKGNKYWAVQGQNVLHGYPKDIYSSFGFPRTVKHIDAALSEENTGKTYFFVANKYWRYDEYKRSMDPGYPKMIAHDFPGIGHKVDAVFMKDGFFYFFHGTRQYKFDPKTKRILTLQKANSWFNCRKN
Outline: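 Substrate MCA-PLGL-Dpa-AR-NH2 at 4 μM final; pH 7.5 Tris/NaCl/CaCl2 buffer with 0.05% polyethyleneglycol lauryl ether, 1% DMSO, room temperature. MMP-1 was expressed in transfected HT-1080 cells and APMA-activated.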

MMP-13 = biological target: T2, MMP-13 (Homo sapiens, UniProt P45452)
T2 construct: made in house; host or cells: baculovirus / insect cells
Outline: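 APMA- or trypsin-activated enzymes were preincubated with inhibitor for 5 min at room temperature, then the fluorogenic substrate MCA-Pro-Leu-Gly-Leu-Dpa-Ala-Arg-NH2 was added to a final 4 μM.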

MMP-2 = biological target: T3, MMP-2 (Homo sapiens, UniProt P08253)
T3 construct: made in house; provided by Dr. Gregory Goldberg, Washington University
T3 sequence (P08253 110-660): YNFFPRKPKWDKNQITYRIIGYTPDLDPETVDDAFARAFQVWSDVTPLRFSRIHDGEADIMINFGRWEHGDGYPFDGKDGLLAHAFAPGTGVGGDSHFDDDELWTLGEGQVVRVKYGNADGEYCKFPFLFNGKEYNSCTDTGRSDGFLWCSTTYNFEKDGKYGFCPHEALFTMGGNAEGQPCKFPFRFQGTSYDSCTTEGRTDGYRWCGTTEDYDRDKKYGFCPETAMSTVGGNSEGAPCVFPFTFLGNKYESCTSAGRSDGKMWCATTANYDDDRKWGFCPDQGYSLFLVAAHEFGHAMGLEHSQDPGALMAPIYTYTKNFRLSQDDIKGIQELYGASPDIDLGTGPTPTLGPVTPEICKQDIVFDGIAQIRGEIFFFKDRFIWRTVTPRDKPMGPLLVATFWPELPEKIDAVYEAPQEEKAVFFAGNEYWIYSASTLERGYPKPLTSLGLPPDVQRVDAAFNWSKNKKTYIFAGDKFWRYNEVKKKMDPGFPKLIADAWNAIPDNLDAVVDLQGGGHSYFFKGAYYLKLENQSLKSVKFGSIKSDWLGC
Outline: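 APMA- or trypsin-activated human MMPs (MMP-1 from transfected HT-1080 cells, MMP-2 from transfected cells) preincubated with inhibitor in 1% DMSO at room temperature, then 4 μM MCA-Pro-Leu-Gly-Leu-Dpa-Ala-Arg-NH2 added in Tris/NaCl/CaCl2 buffer pH 7.5. IC50 from fluorescence reduction versus inhibitor concentration.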

[1] = recombinant human MMP-1, MCA peptide substrate 4 μM, pH 7.5, room temperature
[2] = recombinant human MMP-13, MCA peptide substrate 4 μM, pH 7.5, room temperature, read-out: MMP-13 IC50
[3] = recombinant human MMP-2, MCA peptide substrate 4 μM, pH 7.5, room temperature, read-out: MMP-2 IC50

Compound	IC50 (MMP-1; [1]) [nM]	IC50 (MMP-13; [2]) [nM]	IC50 (MMP-2; [3]) [nM]	IC50 (MMP-1) [nM]	IC50 (MMP-13; MMP-13 IC50 (nM)) [nM]	IC50 (MMP-2; MMP-2 IC50 (nM)) [nM]
C=Cc1ccc(C(=O)C2CCN(c3ccc(S(=O)(=O)C4(C(=O)NO)CCOCC4)cc3)CC2)cc1 [Example 787]	> 10000	1.2	175	–	–	–
CC(C)c1ccc(C(=O)C2CCN(c3ccc(S(=O)(=O)C4(C(=O)NO)CCOCC4)cc3)CC2)cc1 [Example 788]	> 10000	3	445	–	–	–
CC(C)(C)c1ccc(C(=O)C2CCN(c3ccc(S(=O)(=O)C4(C(=O)NO)CCOCC4)cc3)CC2)cc1 [Example 789]	–	12.2	3700	> 10000	–	–
CN(C)c1cccc(C(=O)C2CCN(c3ccc(S(=O)(=O)C4(C(=O)NO)CCOCC4)cc3)CC2)c1 [Example 790]	> 10000	4.5	700	–	–	–
CCOc1ccc(C(=O)C2CCN(c3ccc(S(=O)(=O)C4(C(=O)NO)CCOCC4)cc3)CC2)cc1 [Example 791]	> 10000	2	700	–	–	–
CS(=O)(=O)N1CCC(C2CCN(c3ccc(S(=O)(=O)C4(C(=O)NO)CCOCC4)cc3)CC2)CC1 [Example 793]	> 10000	4	23.5	–	–	–
O=C(NO)C1(S(=O)(=O)c2ccc(OC3CN(C(c4ccccc4)c4ccccc4)C3)cc2)CCOCC1 [Example 794]	> 10000	1500	2900	–	–	–
O=C(c1ccc2c(c1)OCO2)C1CCN(c2ccc(S(=O)(=O)C3(C(=O)NO)CCOCC3)cc2)CC1 [Example 796]	> 10000	5.7	130	–	–	–
O=C(c1ccc2c(c1)OCCO2)C1CCN(c2ccc(S(=O)(=O)C3(C(=O)NO)CCOCC3)cc2)CC1 [Example 797]	–	4	175	> 10000	–	–
C=CCC(=O)C1CCN(c2ccc(S(=O)(=O)C3(C(=O)NO)CCOCC3)cc2)CC1 [Example 798]	> 10000	20	210	–	–	–
CCCC(=O)C1CCN(c2ccc(S(=O)(=O)C3(C(=O)NO)CCOCC3)cc2)CC1 [Example 799]	> 10000	10.6	43.5	–	–	–
CN1CCCN(C2CCN(c3ccc(S(=O)(=O)C4(C(=O)NO)CCOCC4)cc3)CC2)CC1 [Example 807]	> 10000	200	1400	–	–	–
COc1ccc(CCCOC2CCN(c3ccc(S(=O)(=O)C4(C(=O)NO)CCOCC4)cc3)CC2)cc1OC [Example 811]	> 10000	14.8	110	–	–	–
CS(=O)(=O)N1CCCN(C2CCN(c3ccc(S(=O)(=O)C4(C(=O)NO)CCOCC4)cc3)CC2)CC1 [Example 815]	> 10000	140	1400	–	–	–
O=C(NO)C1(S(=O)(=O)c2ccc(N3CCC(CC4CC4)CC3)cc2)CCOCC1 [Example 816]	> 10000	1200	> 10000	–	–	–
CC1CCCC(S(=O)(=O)C2CCN(c3ccc(S(=O)(=O)C4(C(=O)NO)CCOCC4)cc3)CC2)C1 (stereo not drawn) [Example 822]	> 10000	10	210	–	–	–
COc1ccc(C2CCN(c3ccc(S(=O)(=O)C4(C(=O)NO)CCOCC4)cc3)CC2)c(C)c1 [Example 823]	> 10000	–	–	–	7	505

Compound	IC50 (MMP-1; [1]) [nM]	IC50 (MMP-13; [2]) [nM]	IC50 (MMP-2; [3]) [nM]	IC50 (MMP-1) [nM]	IC50 (MMP-13; MMP-13 IC50 (nM)) [nM]	IC50 (MMP-2; MMP-2 IC50 (nM)) [nM]
O=C(NO)C1(S(=O)(=O)c2ccc(N3CCC(c4ccccc4O)CC3)cc2)CCOCC1 [Example 825]	–	11.3	–	> 10000	–	70
O=C(NO)C1(S(=O)(=O)c2ccc(N3CCC(C(O)c4ccccc4)CC3)cc2)CCOCC1 (stereo not drawn) [Example 827]	> 10000	10	540	–	–	–
CCCCOc1cccc(S(=O)(=O)N2CC(Oc3ccc(S(=O)(=O)C4(C(=O)NO)CCOCC4)cc3)C2)c1 [Example 830]	> 10000	17.9	2100	–	–	–
CCc1cccc([C@@H](C)C2CCN(c3ccc(S(=O)(=O)C4(C(=O)NO)CCOCC4)cc3)CC2)c1 [Example 831]	> 10000	2.3	170	–	–	–
CN(C)S(=O)(=O)N(C)C1CCN(c2ccc(S(=O)(=O)C3(C(=O)NO)CCOCC3)cc2)CC1 [Example 832]	> 10000	18.1	2000	–	–	–
COc1ccc(C2CCN(c3ccc(S(=O)(=O)C4(C(=O)NO)CCOCC4)cc3)CC2)c(OC)c1 [Example 833]	> 10000	11	1750	–	–	–
O=C(NO)C1(S(=O)(=O)c2ccc(N3CCC(Oc4ccccc4O)CC3)cc2)CCOCC1 [Example 835]	> 10000	6	20	–	–	–
O=C(Cc1ccccc1)C1CCN(c2ccc(S(=O)(=O)C3(C(=O)NO)CCOCC3)cc2)CC1 [Example 838]	> 10000	3	70	–	–	–
O=C(NO)C1(S(=O)(=O)c2ccc(N3CCC(Nc4ccccc4O)CC3)cc2)CCOCC1 [Example 842]	> 10000	5.5	45.4	–	–	–
O=C(c1ccc2ccccc2c1)C1CCN(c2ccc(S(=O)(=O)C3(C(=O)NO)CCOCC3)cc2)CC1 [Example 844]	–	5	4700	> 10000	–	–
O=C(c1ccc(Cl)c(Cl)c1)C1CCN(c2ccc(S(=O)(=O)C3(C(=O)NO)CCOCC3)cc2)CC1 [Example 846]	> 10000	4.5	186	–	–	–
O=C(NO)C1(S(=O)(=O)c2ccc(OC3CN(S(=O)(=O)Cc4ccccc4)C3)cc2)CCOCC1 [Example 850]	> 10000	4.5	150	–	–	–
Cc1cc(C(=O)C2CCN(c3ccc(S(=O)(=O)C4(C(=O)NO)CCOCC4)cc3)CC2)ccc1Cl [Example 858]	> 10000	3.7	600	–	–	–
CCCc1ccc(C(=O)C2CCN(c3ccc(S(=O)(=O)C4(C(=O)NO)CCOCC4)cc3)CC2)cc1 [Example 860]	> 10000	2.7	1500	–	–	–
Tetrahydro-4-[[4-(pentaflourooxy)phenyl]sulfonyl]-2H-thiopyran-4-carboxamide [Example 225]	> 10000	180	41.8	–	–	–
Tetrahydro-N-hydroxy-4-[[4-(pentaflourooxy)phenyl]sulfonyl]-2H-thiopyran-4-carboxamide [Example 224]	4500	< 0.1	< 0.1	–	–	–
